PMC6320956, “O-Aminoalkyl-O-Trimethyl-2,3-Dehydrosilybins: Synthesis and In Vitro Effects Towards Prostate Cancer Cells” (Molecules, 2018)
Like-named read-outs stand apart in the source and are kept apart here.

Assays:
PC-3 cells [1] = details: WST-1, three days of exposure; cited from earlier work
LNCaP cells [2] = experiment: WST-1 cell proliferation assay, LNCaP; type: cell-based, human; details: for IC50 (Silibinin)/IC50(Derivative) LNCaP: fold potency relative to silibinin; for IC50: Homo sapiens, LNCaP, 72 h, WST-1, three days of exposure, mean ± SD, n = 3
Experimental: (§1) The in vitro antiproliferative activities of six 7-O-substituted and 26 3-O-substituted silybin derivatives were evaluated using the WST-1 cell proliferation assay, according to the procedure as described in the Experimental Section in both androgen-sensitive (LNCaP) and androgen-insensitive (PC-3 and DU145) human prostate cancer cell lines. Silibinin and docetaxel were used as a positive control for comparison in the parallel experiments and the IC50 values calculated from the dose-response curves are summarized in Table 1. […] A three-carbon linker in 11 and 29, as well as a five-carbon linker in 31, 37 and 40, are beneficial to the potency.
(§2) All cell lines were initially purchased from American Type Culture Collection (ATCC^TM) (Manassas, VA, USA). The PC-3 and LNCaP prostate cancer cell lines were routinely cultured in RPIM-1640 medium supplemented with 10% FBS and 1% penicillin/streptomycin. The DU145 prostate cancer cells were routinely cultured in Eagle’s Minimum Essential Medium (EMEM) supplemented with 10% FBS and 1% penicillin/streptomycin. Cultures were maintained in a high humidity environment supplemented with 5% carbon dioxide at a temperature of 37 °C.
(§3) PC-3, DU145, or LNCaP cells were plated in 96-well plates at a density of 3,200 per well in 200 µL of culture medium. The cells were then separately treated with silibinin, or synthesized silibinin derivatives, at five different doses for three days, while equal treatment volumes of DMSO (0.25%) were used as the vehicle control. The cells were cultured in a CO2 incubator at 37 °C for three days. A total of 10 µL of the premixed WST-1 cell proliferation reagent (Clontech) was added to each well. After mixing gently for one min on an orbital shaker, the cells were incubated for an additional 3 h at 37 °C. To ensure a homogeneous distribution of color, it is important to mix gently on an orbital shaker for one min. The absorbance of each well was measured using a microplate reader (Synergy HT, BioTek, Winooski, VT, USA) at a wavelength of 430 nm. […] For calculating the IC50 values, a linear proliferative inhibition was made based on at least five dosages for each compound.

DU145 cells [3] = details: WST-1, three days of exposure; cited from earlier work
LNCaP cells [4] = details: WST-1, three days of exposure; cited from earlier work
DU145 cells [5] = experiment: WST-1 cell proliferation assay, DU145; type: cell-based, human; details: for IC50 (Silibinin)/IC50(Derivative) DU145: fold potency relative to silibinin; for IC50: Homo sapiens, DU-145, 72 h, WST-1, three days of exposure, mean ± SD, n = 3
Experimental: as §1, §2, §3

PC-3 cells [6] = experiment: WST-1 cell proliferation assay, PC-3; type: cell-based, human; details: for IC50 (Silibinin)/IC50(Derivative) PC-3: fold potency relative to silibinin; for IC50: Homo sapiens, PC-3, 72 h, WST-1, three days of exposure, mean ± SD, n = 3
Experimental: as §1, §2, §3

[7] = test system: prostate cancer cell models; parameters: method as in PMID 17201169, PMID 26446382, PMID 27557939, PMID 21507570; details: cited from earlier work
[8] = test system: PWR-1E non-neoplastic human prostate epithelial cells; experiment: WST-1 cell proliferation assay, PWR-1E non-neoplastic cells; type: cell-based; details: Homo sapiens, PWR-1E, 72 h; WST-1, three days of exposure, mean ± SD, n = 3
Experimental: (§4) Silibinin and five potent derivatives (11, 29, 31, 37, and 40) were selected for further evaluation against the MCF 10A non-neoplastic human mammary epithelial cell line and PWR-1E non-neoplastic human prostate epithelial cells.
as §3

[9] = test system: MCF 10A non-neoplastic human mammary epithelial cell line; experiment: WST-1 cell proliferation assay, MCF 10A non-neoplastic cells; type: cell-based; details: Homo sapiens, MCF-10A, 72 h; WST-1, three days of exposure, mean ± SD, n = 3
Experimental: as §4, §3

SMILES | IC50 (PC-3 cells [1]) [µM] | IC50 (Silibinin)/IC50(Derivative) LNCaP (LNCaP cells [2]) | IC50 (DU145 cells [3]) [µM] | IC50 (LNCaP cells [4]) [µM] | IC50 (Silibinin)/IC50(Derivative) DU145 (DU145 cells [5]) | IC50 (Silibinin)/IC50(Derivative) PC-3 (PC-3 cells [6]) | IC50 (LNCaP cells [2]) [µM] | IC50 (DU145 cells [5]) [µM] | melting point [°C] | IC50 (PC-3 cells [6]) [µM] | IC50 [7] [µM] | IC50 [8] [µM] | IC50 [9] [µM]
CCCOc1c(-c2ccc3c(c2)OC(c2ccc(O)c(OC)c2)C(CO)O3)oc2cc(O)cc(O)c2c1=O (centres unmarked) [Compound 4, 3-O-propyl-2,3-dehydrosilybin, reference compound] | 1.71 ± 0.45 | 21 | 11 ± 0.68 | 2.07 ± 0.18 | 8 | 42 |  |  |  |  |  |  | 
COc1ccc(C2Oc3cc(-c4oc5cc(OCCCBr)cc(OC)c5c(=O)c4OC)ccc3OC2CO)cc1OC (centres unmarked) [Compound 8, 7-O-(3′-bromo)propyl-3,5,20-O-trimethyl-2,3-dehydrosilybin] |  | 8 |  |  | 8 | 3 | 5.71 ± 2.13 | 11.5 ± 2.38 | 115 to 116 | 26.1 ± 3.58 |  |  | 
CNCCCOc1cc(OC)c2c(=O)c(OC)c(-c3ccc4c(c3)OC(c3ccc(OC)c(OC)c3)C(CO)O4)oc2c1 (centres unmarked) [Compound 9, 7-O-(N-Methylaminopropyl)-3,5,20-O-trimethyl-2,3-dehydrosilybin] |  | 4 |  |  | 2 | 2 | 12.1 ± 1.81 | 39.6 ± 9.49 | 125 to 127 | 42.6 ± 6.61 |  |  | 
COc1cc(C2Oc3cc([C@H]4Oc5cc(O)cc(O)c5C(=O)[C@@H]4O)ccc3OC2CO)ccc1O (some centres unmarked) [Silibinin, reference compound] |  |  |  |  |  |  | 43.7 ± 10.9 | 93.3 ± 13.7 |  | 72.7 ± 3.15 | 40 to 106 | 20.4 ± 4.09 | 23.8 ± 0.96
